This is an account of results in US12384789B2, “Compounds for treating Huntington's disease” (PTC Therapeutics, Inc., priority 2017, dated 2025).

For this experiment, the system named is Endogenous Huntingtin Protein. The experiment in a line: Endogenous Huntingtin Protein Assay (Meso Scale Discovery ELISA-based electrochemiluminescence). The format is cell-based. The following applies: MSD electrochemiluminescence, Table 1. Put shortly: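 MSD electrochemiluminescence sandwich ELISA: MW1 (expanded polyQ) or MAB2166 capture antibody at 1 μg/mL, samples incubated overnight at 4° C. Detection with rabbit monoclonal #5656S then SULFO-TAG anti-rabbit antibody, each 0.25 μg/mL for 1 h at room temperature.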
On the technique in general: ELISA stands for enzyme-linked immunosorbent assay.
With `Cc1cn2nc(-c3cc(F)c4nc(C5CCN(C)CC5)nnc4c3)cc(C)c2n1` [Compound 69, 7-(2,8-dimethylimidazo[1,2-b]pyridazin-6-yl)-5-fluoro-3-(1-methylpiperidin-4-yl)-1,2,4-benzotriazine], the IC50 is not above 100 nM.
`CCN1CCC(c2cc3c(F)cc(-c4cc(Oc5ccccc5)c5nc(C)cn5n4)cc3nn2)CC1` [Compound 200, 3-(1-ethylpiperidin-4-yl)-5-fluoro-7-(2-methyl-8-phenoxyimidazo[1,2-b]pyridazin-6-yl)cinnoline] gave an IC50 not above 100 nM.
As for `Cc1cn2nc(-c3cc(F)c4cc(N5CC6(CCCNC6)C5)nnc4c3)cc(C)c2n1` [Compound 218, 3-(2,6-diazaspiro[3.5]nonan-2-yl)-7-(2,8-dimethylimidazo[1,2-b]pyridazin-6-yl)-5-fluorocinnoline], the IC50 was not above 100 nM.
`Cn1cc2cc(-c3ccc4cc(C5CCNCC5)ccc4n3)ccc2n1` [Compound 1, 2-(2-methyl-2H-indazol-5-yl)-6-(piperidin-4-yl)quinoline] registered an IC50 of 1000 to 3000 nM.
`CN1CCC(c2ccc3cc(-c4ccc5nn(C)cc5c4)ccc3n2)CC1` [Compound 6, 6-(2-methyl-2H-indazo1-5-yl)-2-(1-methylpiperidin-4-yl)quinoline] registered a half-inhibitory concentration (IC50) of 500 to 1000 nM.
As for `CCN1CCC(c2cc3c(F)cc(-c4cc(C)c5nc(C)oc5n4)cc3nn2)CC1` [Compound 152, 7-(2,7-dimethyl[1,3]oxazolo[5,4-b]pyridin-5-yl)-3-(1-ethylpiperidin-4-yl)-5-fluorocinnoline], the IC50 is not above 100 nM.
`Cc1cn2nc(-c3cc(F)c4cc(C5CCNC5)nnc4c3)cc(C)c2n1` (stereo not shown) [Compound 143, 7-(2,8-dimethylimidazo[1,2-b]pyridazin-6-yl)-5-fluoro-3-(pyrrolidin-3-yl)cinnoline] registered a half-inhibitory concentration (IC50) not above 100 nM.
Next, `Cc1nc2c(C)cc(-c3cc(F)c4cc(C5CCNCC5)nnc4c3)nc2s1` [Compound 133, 7-(2,7-dimethyl[1,3]thiazolo[5,4-b]pyridin-5-yl)-5-fluoro-3-(piperidin-4-yl)cinnoline]: not above 100 nM; `Cc1cn2nc(-c3cc(F)c4cc(C5CCN(C)CC5)nnc4c3)cc(C#N)c2n1` [Compound 176, 6-[5-fluoro-3-(1-methylpiperidin-4-yl)cinnolin-7-yl]-2-methylimidazo[1,2-b]pyridazine-8-carbonitrile]: not above 100 nM.
Take `Cc1cn2nc(-c3cc(F)c4cc(C5CCN(CCO)CC5)nnc4c3)cc(C#N)c2n1` [Compound 178, 6-{5-fluoro-3-[1-(2-hydroxyethyl)piperidin-4-yl]cinnolin-7-yl}-2-methylimidazo[1,2-b]pyridazine-8-carbonitrile]: the half-inhibitory concentration (IC50) was not above 100 nM.
The value for `Cc1cn2nc(-c3cc(F)c4cc(C5CCNCC5)nnc4c3)cc(OCCCn3cnc4ccccc43)c2n1` [Compound 150, 7-{8-[3-(1H-benzimidazol-1-yl)propoxy]-2-methylimidazo[1,2-b]pyridazin-6-yl}-5-fluoro-3-(piperidin-4-yl)cinnoline] was not above 100 nM; that for `Cc1cn2nc(-c3cc(F)c4cc(N5CCC(N(C)C)CC5)nnc4c3)cc(C)c2n1` [Compound 88, 1-[7-(2,8-dimethylimidazo[1,2-b]pyridazin-6-yl)-5-fluorocinnolin-3-yl]-N,N-dimethylpiperidin-4-amine] was not above 100 nM; that for `Cc1cn2nc(-c3cc(F)c4cc(C5C[C@@H](C)N[C@@H](C)C5)nnc4c3)cc(C)c2n1` (stereo partly drawn) [Compound 90, 7-(2,8-dimethylimidazo[1,2-b]pyridazin-6-yl)-3-[(2R,4r,6S)-2,6-dimethylpiperidin-4-yl]-5-fluorocinnoline] was not above 100 nM.
The compound `CCN1CCC(c2ccc3nc(-c4ccc5nn(C)cc5c4)ccc3c2)CC1` [Compound 2, 6-(1-ethylpiperidin-4-yl)-2-(2-methyl-2H-indazol-5-yl)quinoline] yielded an IC50 of 1000 to 3000 nM.
`Cn1cc2c(F)c(-c3cc(F)c4cc(C5CCNCC5)nnc4c3)ccc2n1` [Compound 109, 5-fluoro-7-(4-fluoro-2-methyl-2H-indazol-5-yl)-3-(piperidin-4-yl)cinnoline] registered an IC50 of 500 to 1000 nM.
`CCN1CCC(c2ccc3cc(-c4ccc5nn(C)cc5c4)ccc3n2)CC1` [Compound 9, 2-(1-ethylpiperidin-4-yl)-6-(2-methyl-2H-indazol-5-yl)quinoline] came in with an IC50 of 1000 to 3000 nM.
The value for `Cc1cn2cc(-c3cc(F)c4cc(C5CCNCC5)nnc4c3)cc2c(C)n1` [Compound 101, 7-(1,3-dimethylpyrrolo[1,2-a]pyrazin-7-yl)-5-fluoro-3-(piperidin-4-yl)cinnoline] was not above 100 nM; that for `Cn1cc2cc(-c3cc(F)c4nc(C5CCNCC5)ncc4c3)cc(F)c2n1` [Compound 36, 8-fluoro-6-(7-fluoro-2-methyl-2H-indazol-5-yl)-2-(piperidin-4-yl)quinazoline] was not above 100 nM; that for `Cc1cn2nc(-c3cc(F)c4cc(N5CCC(C)(N(C)C)CC5)nnc4c3)cc(C)c2n1` [Compound 224, 1-[7-(2,8-dimethylimidazo[1,2-b]pyridazin-6-yl)-5-fluorocinnolin-3-yl]-N,N,4-trimethylpiperidin-4-amine] was not above 100 nM.
Next, `Cc1cn2cc(-c3cc4c(F)cc(C5=CCNCC5)cc4nn3)cc(C)c2n1` [Compound 156, 3-(2,8-dimethylimidazo[1,2-a]pyridin-6-yl)-5-fluoro-7-(1,2,3,6-tetrahydropyridin-4-yl)cinnoline]: not above 100 nM; `CCc1cc(-c2cc(F)c3cc(C4CCN(C)CC4)nnc3c2)nn2cc(C)nc12` [Compound 122, 7-(8-ethyl-2-methylimidazo[1,2-b]pyridazin-6-yl)-5-fluoro-3-(1-methylpiperidin-4-yl)cinnoline]: not above 100 nM; `Cc1cn2nc(-c3cc(F)c4cc(C5CCN(CCCN(C)C)CC5)nnc4c3)cc(C)c2n1` [Compound 158, 3-{4-[7-(2,8-dimethylimidazo[1,2-b]pyridazin-6-yl)-5-fluorocinnolin-3-yl]piperidin-1-yl}-N,N-dimethylpropan-1-amine]: not above 100 nM.
Regarding `Cc1cn2cc(-c3cc(F)c4cc(C5CCNCC5)nnc4c3)cc(F)c2n1` [Compound 92, 5-fluoro-7-(8-fluoro-2-methylimidazo[1,2-a]pyridin-6-yl)-3-(piperidin-4-yl)cinnoline], the IC50 is not above 100 nM.
For `Cc1cc(-c2cc(F)c3nc(C4CCNCC4)nnc3c2)cc2cn(C)nc12` [Compound 33, 7-(2,7-dimethyl-2H-indazol-5-yl)-5-fluoro-3-(piperidin-4-yl)-1,2,4-benzotriazine], the concentration for half-maximal inhibition (IC50) is not above 100 nM.
Turning to `CCN1CCC(c2cc(F)c3cc(-c4cc(F)c5nn(C)cc5c4)nnc3c2)CC1` [Compound 154, 7-(1-ethylpiperidin-4-yl)-5-fluoro-3-(7-fluoro-2-methyl-2H-indazol-5-yl)cinnoline], the IC50 is not above 100 nM.
`Cc1cn2nc(-c3cc(F)c4nc(C5CCNCC5)cnc4c3)cc(C)c2n1` [Compound 82, 6-(2,8-dimethylimidazo[1,2-b]pyridazin-6-yl)-8-fluoro-2-(piperidin-4-yl)quinoxaline] returned an IC50 not above 100 nM.
The value for `Cc1cn2cc(-c3nnc4cc(C5CCNCC5)ccc4n3)cc2c(C)n1` [Compound 28, 3-(1,3-dimethylpyrrolo[1,2-a]pyrazin-7-yl)-7-(piperidin-4-yl)-1,2,4-benzotriazine] was 1000 to 3000 nM; that for `Cc1cn2nc(-c3cc(F)c4cc(C5CCCN(CCF)CC5)nnc4c3)cc(C)c2n1` (stereo not shown) [Compound 199, 7-(2,8-dimethylimidazo[1,2-b]pyridazin-6-yl)-5-fluoro-3-[1-(2-fluoroethyl)azepan-4-yl]cinnoline] was not above 100 nM.
The value for `CCc1cc(-c2cc(F)c3cc(C4CCN(CCO)CC4)nnc3c2)nn2cc(C)nc12` [Compound 123, 2-{4-[7-(8-ethyl-2-methylimidazo[1,2-b]pyridazin-6-yl)-5-fluorocinnolin-3-yl]piperidin-1-yl}ethan-1-ol] was not above 100 nM.
The value for `CCCc1cc(-c2cc(F)c3cc(C4CCNCC4)nnc3c2)nn2cc(C)nc12` [Compound 204, 5-fluoro-7-(2-methyl-8-propylimidazo[1,2-b]pyridazin-6-yl)-3-(piperidin-4-yl)cinnoline] was not above 100 nM.
`Cc1nc2c(C)cc(-c3cc(F)c4nc(C5CCNCC5)nnc4c3)cc2o1` [Compound 62, 7-(2,4-dimethyl-1,3-benzoxazol-6-yl)-5-fluoro-3-(piperidin-4-yl)-1,2,4-benzotriazine] showed an IC50 not above 100 nM.
The value for `Cc1cn2nc(-c3cc(F)c4cc(C5C[C@@H](C)N(C)[C@@H](C)C5)nnc4c3)cc(C)c2n1` (stereo partly shown) [Compound 161] was not above 100 nM; that for `Cc1cn2cc(-c3cc(F)c4nc(C5CCNCC5)nnc4c3)cc(C(F)(F)F)c2n1` [Compound 61, 5-fluoro-7-[2-methyl-8-(trifluoromethyl)imidazo[1,2-a]pyridin-6-yl]-3-(piperidin-4-yl)-1,2,4-benzotriazine] was 500 to 1000 nM; that for `Cc1cc(-c2cc3c(F)cc(C4=CCNCC4)cc3nn2)cc2cn(C)nc12` [Compound 157, 3-(2,7-dimethyl-2H-indazol-5-yl)-5-fluoro-7-(1,2,3,6-tetrahydropyridin-4-yl)cinnoline] was not above 100 nM.
In turn, `Cc1cn2cc(-c3nnc4cc(C5CC6CCC(C5)N6)ccc4n3)cc(F)c2n1` (stereo not shown) [Compound 56, 7-(8-azabicyclo[3.2.1]oct-3-yl)-3-(8-fluoro-2-methylimidazo[1,2-a]pyridin-6-yl)-1,2,4-benzotriazine] gave an IC50 not above 100 nM.
The value for `Cc1cn2nc(-c3cc(F)c4cc(N5CCC6(CNC6)C5)nnc4c3)cc(C)c2n1` [Compound 220, 3-(2,6-diazaspiro[3.4]octan-6-yl)-7-(2,8-dimethylimidazo[1,2-b]pyridazin-6-yl)-5-fluorocinnoline] was 100 to 500 nM; that for `CCN1CCC(c2cc3c(F)cc(-c4cc(CC#N)c5nc(C)cn5n4)cc3nn2)CC1` [Compound 205, {6-[3-(1-ethylpiperidin-4-yl)-5-fluorocinnolin-7-yl]-2-methylimidazo[1,2-b]pyridazin-8-yl}acetonitrile] was 100 to 500 nM.

What is called IC50 is the concentration needed to halve the response being measured.
